Reference: patent publication US20240315989A1 (priority 2021, published 2024)
Where “and” joins values, the source holds several entries; their conditions need not be identical. Equal values may be shown once. Read-outs that look alike come from different tables or passages of the source.

Columns and labels:
[1] = depending on formulation; cited from earlier work
COVID-19 [2] = system: COVID-19
[3] = remark: listed apart in the source
Description: All serious and non-serious adverse events were reported to study personnel as per local regulatory requirements. Reportable adverse events included serious adverse events, adverse events resulting in study medication discontinuation, and adverse events assessed as possibly related to study medication.
Because many patients who would ordinarily have been hospitalized were prevented from admission due to hospital over-capacity during peak waves, the composite endpoint addresses both hospitalization and a proxy for hospitalization, retention in a COVID-19 emergency hospital setting. This region of Brazil implemented hospital-like services in the emergency settings with 50-80 bed units providing services including multiday stays, oxygenation, and mechanical ventilation. […] Key secondary outcomes include viral clearance, time to clinical improvement, number of days with respiratory symptoms, time to hospitalization for any cause or due to COVID-19 progression, all-cause mortality and time to death from any causes, WHO clinical worsening scale score, days in hospital and on ventilator and adverse events, adverse reactions to the study medications, and the proportion of participants who are non-adherent with the study drugs.
The TOGETHER trial is the largest placebo-controlled trial of COVID-19 interventions in the world. It currently evaluates drugs for pre-hospitalization.

[4] = system: COVID-19 (SARS-CoV-2 infection); details: cited from earlier work
[5] = system: experimental autoimmune encephalomyelitis (EAE); details: cited from earlier work
SARS-CoV-2 infection = assay: Retrospective cohort (BJC Healthcare): antidepressant exposure and ED or hospital encounter within 30 days; assay type: in vivo, human; details: share of exposed outpatients with an encounter after a positive SARS-CoV-2 test
COVID-19 [6] = details: cited from earlier work
[7] = cited from earlier work
[8] = intent to treat analysis of 1649 participants
[9] = pooled, fluvoxamine vs blinded placebo
[10] = two randomized trials pooled, intent to treat
[11] = Together, N = 741, MedDRA body system

SMILES: COCCCC/C(=N\OCCN)c1ccc(C(F)(F)F)cc1.O=C(O)/C=C\C(=O)O [fluvoxamine, 5-methoxy-4′-(trifluoromethyl)valerophenone-(E)-O-(2-aminoethyl)oxime maleate (1:1)]
- half-life [1]: 9 to 28 h
- reduction in hospitalizations (COVID-19 [2]; [8]): Summary of the two randomized clinical trial data demonstrate a 25%
- reduction in progression to severe disease with hypoxia ≤92%, ER visit >6 hour (with hypoxia), or hospitalizations (COVID-19 [2]; [8]): reduction in hospitalizations and 36% reduction in progression to severe
- reduction in hospitalizations (COVID-19 [2]; intent to treat, vs placebo): 25%
- Number needed to treat (COVID-19 [2]; pooled): approximately 20
- Hospitalization, Absolute Risk Reduction (COVID-19 [2]; [9]): 3.1%
- Mortality, Absolute Risk Reduction (COVID-19 [2]; [9]): 0.9%
- Progression to Severe COVID-19, Absolute Risk Reduction (COVID-19 [2]; [9]): 5.4%
- Hospitalization, % (COVID-19 [2]; [10]): 9.3%
- Hospitalization, n/N (COVID-19 [2]; [10]): (76/821)
- Mortality, % (COVID-19 [2]; [10]): 2.1%
- Mortality, n/N (COVID-19 [2]; [10]): (17/821)
- Progression to Severe COVID-19 (Hospitalization or ER Visit >6 hr or Hypoxia <92%), % (COVID-19 [2]; [10]): 9.6%
- Progression to Severe COVID-19, n/N (COVID-19 [2]; [10]): (79/821)
- Maximum dose tolerated over 15 days 200 mg/day (100 twice daily), % (STOP COVID trial dosing): (45%)
- Maximum dose tolerated over 15 days 200 mg/day (100 twice daily), Number (STOP COVID trial dosing): 36
- Maximum dose tolerated over 15 days 300 mg/day (100 three times daily), % (STOP COVID trial dosing): (50%)
- Maximum dose tolerated over 15 days 300 mg/day (100 three times daily), Number (STOP COVID trial dosing): 40
- Not able to reach 200 mg/day, % (STOP COVID trial dosing): (5%)
- Not able to reach 200 mg/day, Number (STOP COVID trial dosing): 4
- Acute on chronic respiratory failure, % (StopCovid, N = 80): (0%)
- Acute on chronic respiratory failure, number (StopCovid, N = 80): 0
- Bacterial infection, % (StopCovid, N = 80): (1.3%)
- Bacterial infection, number (StopCovid, N = 80): 1
- Chest pain or tightness, % (StopCovid, N = 80): (0%)
- Chest pain or tightness, number (StopCovid, N = 80): 0
- Fever, % (StopCovid, N = 80): (0%)
- Fever, number (StopCovid, N = 80): 0
- Flank pain, % (StopCovid, N = 80): (0%)
- Flank pain, number (StopCovid, N = 80): 0
- Gastroenteritis, nausea, or vomiting, % (StopCovid, N = 80): (1.3%)
- Gastroenteritis, nausea, or vomiting, number (StopCovid, N = 80): 1
- Headache or head pain, % (StopCovid, N = 80): (2.5%)
- Headache or head pain, number (StopCovid, N = 80): 2
- Number of patients with any serious adverse event (StopCovid, N = 80): 1
- Number of patients with any serious adverse event, % (StopCovid, N = 80): (1.3%)
- Number with any adverse event (StopCovid, N = 80): 12
- Number with any adverse event, % (StopCovid, N = 80): (15%)
- Pneumonia, % (StopCovid, N = 80): (3.8%)
- Pneumonia, number (StopCovid, N = 80): 3
- Shortness of breath, % (StopCovid, N = 80): (2.5%)
- Shortness of breath, number (StopCovid, N = 80): 2
- Teeth chattering, % (StopCovid, N = 80): (1.3%)
- Teeth chattering, number (StopCovid, N = 80): 1
- Vasovagal syncope, % (StopCovid, N = 80): (1.3%)
- Vasovagal syncope, number (StopCovid, N = 80): 1
- hypercapnia, % (StopCovid, N = 80): (0%)
- hypercapnia, number (StopCovid, N = 80): 0
- muscle aches, % (StopCovid, N = 80): (1.3%)
- muscle aches, number (StopCovid, N = 80): 1
- Acute respiratory failure, No. of adverse events (%) (n = 80, 15 days): 0 No. (%)
- Bacterial infection, No. of adverse events (%) (n = 80, 15 days): 1 (1.3) No. (%)
- Chest pain or tightness, No. of adverse events (%) (n = 80, 15 days): 0 No. (%)
- Fever, No. of adverse events (%) (n = 80, 15 days): 0 No. (%)
- Flank pain, No. of adverse events (%) (n = 80, 15 days): 0 No. (%)
- Gastroenteritis, nausea, or vomiting, No. of adverse events (%) (n = 80, 15 days): 1 (1.3) No. (%)
- Headache or head pain, No. of adverse events (%) (n = 80, 15 days): 2 (2.5) No. (%)
- Hypercapnia, No. of adverse events (%) (n = 80, 15 days): 0 No. (%)
- Muscle aches, No. of adverse events (%) (n = 80, 15 days): 1 (1.3) No. (%)
- Other adverse events, by No. of patients (%) (n = 80, 15 days): 11 (13.8) No. (%)
- Pneumonia, No. of adverse events (%) (n = 80, 15 days): 3 (3.8) No. (%)
- Serious adverse events, by No. of patients (%) (n = 80, 15 days): 1 (1.3) No. (%)
- Shortness of breath, No. of adverse events (%) (n = 80, 15 days): 2 (2.5) No. (%)
- Teeth chattering, No. of adverse events (%) (n = 80, 15 days): 1 (1.3) No. (%)
- Vasovagal syncope, No. of adverse events (%) (n = 80, 15 days): 1 (1.3) No. (%)
- Treatment emergent adverse event Grade 1, % ([3]; TOGETHER, fluvoxamine group): (3%)
- Treatment emergent adverse event Grade 1, n/N ([3]; TOGETHER, fluvoxamine group): 20/741
- Treatment emergent adverse event Grade 2, % ([3]; TOGETHER, fluvoxamine group): (10%)
- Treatment emergent adverse event Grade 2, n/N ([3]; TOGETHER, fluvoxamine group): 72/741
- Treatment emergent adverse event Grade 3, % ([3]; TOGETHER, fluvoxamine group): (5%)
- Treatment emergent adverse event Grade 3, n/N ([3]; TOGETHER, fluvoxamine group): 38/741
- Treatment emergent adverse event Grade 4, % ([3]; TOGETHER, fluvoxamine group): (3%)
- Treatment emergent adverse event Grade 4, n/N ([3]; TOGETHER, fluvoxamine group): 21/741
- Treatment emergent adverse event Grade 5, % ([3]; TOGETHER, fluvoxamine group): (2%)
- Treatment emergent adverse event Grade 5, n/N ([3]; TOGETHER, fluvoxamine group): 18/741
- Cardiac disorders, % of AEs [3, 11]: (0.6%)
- Cardiac disorders, number of AEs [3, 11]: 1
- Ear and labyrinth disorders, % of AEs [3, 11]: (0.6%)
- Ear and labyrinth disorders, number of AEs [3, 11]: 1
- Gastrointestinal disorders, % of AEs [3, 11]: (9.2%)
- Gastrointestinal disorders, number of AEs [3, 11]: 16
- Hepatobiliary disorders, % of AEs [3, 11]: (0%)
- Hepatobiliary disorders, number of AEs [3, 11]: 0
- Infections and infestations, % of AEs [3, 11]: (49%)
- Infections and infestations, number of AEs [3, 11]: 85
- Metabolism and nutrition disorders, % of AEs [3, 11]: (2.3%)
- Metabolism and nutrition disorders, number of AEs [3, 11]: 4
- Musculoskeletal and connective tissue disorders, % of AEs [3, 11]: (2.3%)
- Musculoskeletal and connective tissue disorders, number of AEs [3, 11]: 4
- Nervous system disorders, % of AEs [3, 11]: (1.7%)
- Nervous system disorders, number of AEs [3, 11]: 3
- Psychiatric disorders, % of AEs [3, 11]: (2.9%)
- Psychiatric disorders, number of AEs [3, 11]: 5
- Renal and urinary disorders, % of AEs [3, 11]: (0.6%)
- Renal and urinary disorders, number of AEs [3, 11]: 1
- Reproductive system and breast disorders, % of AEs [3, 11]: (0.6%)
- Reproductive system and breast disorders, number of AEs [3, 11]: 1
- Respiratory, thoracic and mediastinal disorders, % of AEs [3, 11]: (6.3%)
- Respiratory, thoracic and mediastinal disorders, number of AEs [3, 11]: 11
- Skin and subcutaneous tissue disorders, % of AEs [3, 11]: (0%)
- Skin and subcutaneous tissue disorders, number of AEs [3, 11]: 0
- Vascular disorders, % of AEs [3, 11]: (1.1%)
- Vascular disorders, number of AEs [3, 11]: 2
- N individual AEs ([3]; Together, N = 741 participants): 174
- Participants who stopped owing to issues of tolerability, No. ([3]; of 741): 84
- Incidence of hospitalization ([4]; 50 mg twice daily, 14 days): 0%
- Patients hospitalized, number of 65 ([4]; 14 days): no patients and 0 of 65
- Patients hospitalized, number of 65 ([4]; 14 days, listed as FLV): 0/65
- Persistent residual / ongoing symptoms at 14 days ([4]; Day 14): 0%
- Persons with persistent residual / ongoing symptoms at 14 days, number of 65 ([4]; Day 14): 0/65 and zero
- Persons with persistent residual / ongoing symptoms at 14 days, number of 65 ([4]; Day 14, listed as FLV): 0/65
- Severity of EAE ([5]; rats, also when treatment began 12 days post-induction): reduces the severity
- IFN-γ serum levels ([5]; vs untreated EAE rats): decrease
- IL-4 serum levels ([5]; vs untreated EAE rats): increase
- ED or hospital encounter within 30 days, % (SARS-CoV-2 infection): 21.1%
- HR for death vs matched controls (COVID-19 [6]; 95% CI 0.36-0.94): 0.58
- Patients who died, % (COVID-19 [6]; ICU patients, 100 mg three times daily): 58.8%
- Reduced risk of death vs matched controls (COVID-19 [6]; in vivo): 42%
- Patients who died, No. (COVID-19 [6]; of 51 ICU patients, 100 mg three times daily): 30
- Nausea, % of patients ([7]; 35,368 people, 66 studies): 15.7%
- Another serious adverse event (suicide attempt, depression, death, accidental injury) ([7]; in vivo): < 0.4%
- Serious adverse events requiring hospitalization ([7]; in vivo): 1.6%
- Serious adverse events, % of people ([7]; taking the medication for a psychiatric disorder): approximately 2.0%
